The source of these data is patent US20060067923A1, “Preventing agent against drug-resistant bacterial infection” (priority 2004, published 2006).

Converted amounts (≈) assume the structure as drawn. Read-outs that look alike come from different tables or passages of the source. Positions of bridges follow the written chain, without caps; N, C: chain ends. Non-standard residues stand in square brackets, D forms with d. Residues, ends and D or L forms follow the SMILES beside them. *: point of attachment. Ileψ(thiazoline)Cys = CC[C@H](C)[C@H](N)C1=N[C@H](C(=O)*)CS1; dOrn = NCCC[C@@H](N)C(=O)O Where only a bound is given, the exact number is not on record here.

The assay deals with Enterococcus faecalis ATCC 51299 strain. Description: MIC levels of antibiotics against Vancomycin-resistant bacteria. Format: cell-based. The source says: Enterococcus faecalis ATCC 51299 strain was used as Vancomycin-resistant bacteria.
Setting [1] is: Enterococcus faecalis, ATCC51299, 16 h; read-out: MIC levels after 16 hours of culture.
[2] abbreviates: Enterococcus faecalis, ATCC51299, 24 h; read-out: MIC levels after 24 hours of culture.

For Gentamicin, the “MIC levels after 16 hours of culture” value (16 hours of culture) is more than 512 µg/mL. Moreover, the “MIC levels after 24 hours of culture” value (24 hours of culture) was more than 512 µg/mL.
One may read the MIC as the smallest concentration in the dilution series that meets the test's criterion for growth inhibition. `CC1(C)S[C@@H]2[C@H](NC(=O)[C@H](N)c3ccccc3)C(=O)N2[C@H]1C(=O)O` [Ampicillin]: the MIC was found to be 0.5 µg/mL (≈ 1.43 µM) under setting [1] and 0.5 µg/mL (≈ 1.43 µM) under setting [2].
`Cc1onc(-c2ccccc2)c1C(=O)N[C@@H]1C(=O)N2[C@@H]1SC(C)(C)[C@@H]2C(=O)O` [Oxacillin]: the minimal inhibitory concentration (MIC) came out at 32 µg/mL (≈ 79.7 µM) under setting [1] and 64 µg/mL (≈ 159 µM) under setting [2].
Taken in the same sequence, the figures for `CC[C@H]1OC(=O)[C@H](C)[C@@H](O[C@H]2C[C@@](C)(OC)[C@@H](O)[C@H](C)O2)[C@H](C)[C@@H](O[C@@H]2O[C@H](C)C[C@H](N(C)C)[C@H]2O)[C@](C)(O)C[C@@H](C)C(=O)[C@H](C)[C@@H](O)[C@]1(C)O` [Erythromycin] were 512 µg/mL (≈ 698 µM) and more than 512 µg/mL.
For `CC[C@H](C)[C@H](N)C1=N[C@H](C(=O)N[C@@H](CC(C)C)C(=O)N[C@H](CCC(=O)O)C(=O)N[C@H](C(=O)N[C@H]2CCCCNC(=O)[C@H](CC(N)=O)NC(=O)[C@@H](CC(=O)O)NC(=O)[C@H](Cc3cnc[nH]3)NC(=O)[C@@H](Cc3ccccc3)NC(=O)[C@H]([C@@H](C)CC)NC(=O)[C@@H](CCCN)NC2=O)[C@@H](C)CC)CS1` [Bacitracin] ({Ileψ(thiazoline)Cys}-L[dE]IK[dOrn]I[dF]H[dD]N; lactam 4-C), the MIC runs as follows: under setting [1], 64 µg/mL (≈ 45 µM); under setting [2], 128 µg/mL (≈ 90 µM).
Taken in the same sequence, the figures for `[H]/N=C(/N)N[C@H]1[C@H](O)[C@@H](O)[C@H](O[C@@H]2O[C@@H](C)[C@](O)(C=O)[C@H]2O[C@@H]2O[C@@H](CO)[C@H](O)[C@@H](O)[C@@H]2NC)[C@@H](N/C(N)=N\[H])[C@@H]1O` [Streptomycin] were more than 512 µg/mL and more than 512 µg/mL.
Teicoplanin: the “MIC levels after 16 hours of culture” value (16 hours of culture) amounted to 1 µg/mL. Moreover, the “MIC levels after 24 hours of culture” value (24 hours of culture) is 1 µg/mL.
`CN(C)[C@@H]1C(O)=C(C(N)=O)C(=O)[C@@]2(O)C(O)=C3C(=O)c4c(O)cccc4[C@@](C)(O)[C@H]3C[C@@H]12` [Tetracycline]: the MIC was 0.5 µg/mL (≈ 1.13 µM) under setting [1] and 1 µg/mL (≈ 2.25 µM) under setting [2].
The like results for `O=C(N[C@H](CO)[C@H](O)c1ccc([N+](=O)[O-])cc1)C(Cl)Cl` [Chloramphenicol] were, in that order, 64 µg/mL (≈ 198 µM) and 128 µg/mL (≈ 396 µM).
Turning to `CN[C@H](CC(C)C)C(=O)N[C@H]1C(=O)N[C@@H](CC(N)=O)C(=O)N[C@H]2C(=O)N[C@H]3C(=O)N[C@H](C(=O)N[C@H](C(=O)O)c4cc(O)cc(O)c4-c4cc3ccc4O)[C@H](O)c3ccc(c(Cl)c3)Oc3cc2cc(c3O[C@@H]2O[C@H](CO)[C@@H](O)[C@H](O)[C@H]2O[C@H]2C[C@](C)(N)[C@H](O)[C@H](C)O2)Oc2ccc(cc2Cl)[C@H]1O` [Vancomycin], the minimal inhibitory concentration (MIC) by setting is: (Enterococcus faecalis, ATCC51299, 16 h, read-out: MIC levels after 16 hours of culture) 16 µg/mL (≈ 11 µM); (Enterococcus faecalis, ATCC51299, 24 h, read-out: MIC levels after 24 hours of culture) 64 µg/mL (≈ 44.2 µM).
